Legend:
Assay type in all cases: biochemical
[1] = target: Klebsiella pneumoniae ATCC 25955 B12-dependent glycerol dehydratase (GDH), wild type, SEQ ID NO: 1 (α, β, γ subunits SEQ ID NO: 2, 3, 4) (Klebsiella pneumoniae, UniProt O08505+Q59476); test: Time course of GDH reaction with glycerol, with and without 1,3-propanediol (permeabilized cells, FIG. 1); set-up: permeabilized cells (A1) or purified (A2-A4)
Protocol: FIG. 1 illustrates the typical time course associated with GDH inactivation. These enzyme activity assays were conducted using the GDH encoded by dhaB1, dhaB2, and dhaB3 (SEQ ID NO:1 and SEQ ID NO: 2, 3, and 4, respectively) of K. pneumoniae (WO 01/012833A2).
Cells were permeabilized as follows: aliquots of culture (0.3 mL) were dispensed into the square wells of a polypropylene deep-well plate (Beckman-Coulter, Fullerton, Calif.) and 10 μL of toluene containing 2.5% (v/v) Triton X-100 detergent was added to each well. Plates were then shaken for 10 min at top speed on an IKA MTS4 shaker (IKA-Werke Gmbh., Staufen, Germany). Working under red light to protect the coenzyme B12, reactions were started by adding 5 volumes of substrate solution to 1 volume of permeabilized cell suspension. The substrate solution contained 12 mM glycerol and 24 μM coenzyme B12 in 0.1 M K-Hepes, pH 8. At timed intervals, 12.5 μl aliquots of the reaction were added to the wells of a 96-well plate which contained 12.5 μl of 3 mg/mL MBTH in 0.4 M glycine-HCl, pH 2.7. At least 20 min after sampling, 125 μL of 5.5 mM FeCl3 in 10 mM HCl was added to each of the MBTH-containing samples. After a further 20 min or longer, the blue color associated with GDH activity was quantitated as absorbance at 670 nm using a Spectramax 160 plate reader (Molecular Devices, Sunnyvale, Calif.). A similar experiment was conducted in which the substrate solution was supplemented with 50 mM 1,3-propanediol.
The rate of product formation decreases rapidly with time as inactivation occurs. A theoretical curve was drawn through the points by fitting three parameters to the following equation y=T0+amp(1−exp(−kinact obsd*time)). […] The fitting parameters are related to the kinetic properties of the reaction as follows: the amplitude is equal to the initial rate of the reaction (v) divided by the observed enzyme inactivation rate (kinact obsd). The initial rate is [GDH][gly]kcat/(Km+[gly]). […]

[2] = target: Klebsiella pneumoniae GDH variant Xba3007 (γ-Thr53Ala), SEQ ID NO: 40 (amino acid 41, 42, 43) (Klebsiella pneumoniae, UniProt O08505+Q59476); conditions: Xba3007 (Type 1)
[3] = target: Klebsiella pneumoniae GDH variant Sma3002 (α-Tyr271Cys, α-Tyr502His, stop of α to Gln (α-β fusion), β-Gln2Arg, β-Phe11 silent), SEQ ID NO: 140 (amino acid 141, (Klebsiella pneumoniae, UniProt O08505+Q59476, form not given/Y271C/Y502H)); conditions: Sma3002 (Type 2)
[4] = target: Klebsiella pneumoniae GDH variant Xba3009 (α-Thr77Ala, α-Cys193Ser, stop of α to Glu (α-β fusion), β-Lys56Arg, β-Ala88 silent, β-Asp111Glu, γ-His67Tyr, γ-Thr114 (Klebsiella pneumoniae, UniProt O08505+Q59476, C193S/D111E, form not given/K56R/T77A)); conditions: Xba3009 (Type 4)

| SMILES | Ki [1] [mM] | inactivation, times faster with 1,3-propanediol ([1]; 50 mM 1,3-propanediol, 10 mM glycerol, vs without 1,3-propanediol) [times] | inhibition at 50000 µM ([1]; pH 8, read-out: reduction of initial rate of the reaction) [%] | kcat [2] | Km [3] [mM] | kcat [3] | kcat [4] |
| --- | --- | --- | --- | --- | --- | --- | --- |
| OCCCO [1,3-propanediol] | ~15 | ~3 | ~20 | – | – | – | – |
| OCC(O)CO [glycerol] | – | – | – | 16,220 min^−1 | 2.94 | 9,830 min^−1 | 65,373 min^−1 |
